# Experiments:
# Format in all cases: ADME
# Cytochrome P450 2B6 = target: T1, Cytochrome P450 2B6 (Homo sapiens, UniProt P20813); assay: Clinically relevant substrates of human liver microsomal P450 enzymes, isoform CYP2B6; conditions: microsomes
# T1 sequence (P20813 whole entry): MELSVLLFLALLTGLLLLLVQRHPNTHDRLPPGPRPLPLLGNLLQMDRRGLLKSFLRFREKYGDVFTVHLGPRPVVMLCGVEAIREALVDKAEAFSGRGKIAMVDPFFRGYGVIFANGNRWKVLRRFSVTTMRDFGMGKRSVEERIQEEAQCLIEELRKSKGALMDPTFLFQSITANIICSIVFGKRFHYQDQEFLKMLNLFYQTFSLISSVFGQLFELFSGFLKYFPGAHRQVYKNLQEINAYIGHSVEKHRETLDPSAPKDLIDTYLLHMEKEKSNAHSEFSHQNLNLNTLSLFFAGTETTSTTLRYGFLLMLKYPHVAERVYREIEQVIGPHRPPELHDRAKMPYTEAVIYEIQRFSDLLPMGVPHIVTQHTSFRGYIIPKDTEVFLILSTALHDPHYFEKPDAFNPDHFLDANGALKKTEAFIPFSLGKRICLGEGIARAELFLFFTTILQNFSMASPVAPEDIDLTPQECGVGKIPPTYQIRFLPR
# [1] = target: T2, Glutathione S-transferase A1 (Homo sapiens, UniProt P08263); assay: Substrates for human cytosolic glutathione transferase GSTA1
# T2 sequence (P08263 whole entry): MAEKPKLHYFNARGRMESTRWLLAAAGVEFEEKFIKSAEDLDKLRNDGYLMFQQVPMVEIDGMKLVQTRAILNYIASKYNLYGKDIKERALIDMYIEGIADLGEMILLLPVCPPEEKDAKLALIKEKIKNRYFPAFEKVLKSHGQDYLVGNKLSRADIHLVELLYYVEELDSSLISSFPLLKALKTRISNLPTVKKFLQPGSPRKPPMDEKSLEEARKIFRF
# [2] = target: Glutathione S-transferase P (Homo sapiens, UniProt P09211); assay: Substrates for human cytosolic glutathione transferase GSTP1
# Chain of Glutathione S-transferase P (P09211 whole entry): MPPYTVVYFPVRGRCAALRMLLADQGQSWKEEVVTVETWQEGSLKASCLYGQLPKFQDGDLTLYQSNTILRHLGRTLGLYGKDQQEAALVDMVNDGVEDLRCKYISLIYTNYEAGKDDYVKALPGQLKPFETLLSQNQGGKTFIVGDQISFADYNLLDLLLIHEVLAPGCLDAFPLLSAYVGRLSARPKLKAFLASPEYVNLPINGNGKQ
# Sulfotransferase 1C4 = Sulfotransferase 1C4 (Homo sapiens, UniProt O75897); assay: Major substrate of human cytosolic sulfotransferase SULT1C4
# Chain of Sulfotransferase 1C4 (O75897 whole entry): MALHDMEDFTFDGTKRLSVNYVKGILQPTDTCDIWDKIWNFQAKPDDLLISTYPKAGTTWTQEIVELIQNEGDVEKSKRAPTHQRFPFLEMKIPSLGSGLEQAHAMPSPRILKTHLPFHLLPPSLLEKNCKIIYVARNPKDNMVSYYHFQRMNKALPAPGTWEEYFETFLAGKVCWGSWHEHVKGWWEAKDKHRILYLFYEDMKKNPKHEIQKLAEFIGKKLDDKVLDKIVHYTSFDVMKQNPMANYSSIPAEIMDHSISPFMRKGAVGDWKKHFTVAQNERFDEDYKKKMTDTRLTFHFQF
# [3] = target: T3, UDP-glucuronosyltransferase 1A3 (Homo sapiens, UniProt P35503); assay: Substrate of human UDP-glucuronosyltransferase UGT1A3
# T3 sequence (P35503 whole entry): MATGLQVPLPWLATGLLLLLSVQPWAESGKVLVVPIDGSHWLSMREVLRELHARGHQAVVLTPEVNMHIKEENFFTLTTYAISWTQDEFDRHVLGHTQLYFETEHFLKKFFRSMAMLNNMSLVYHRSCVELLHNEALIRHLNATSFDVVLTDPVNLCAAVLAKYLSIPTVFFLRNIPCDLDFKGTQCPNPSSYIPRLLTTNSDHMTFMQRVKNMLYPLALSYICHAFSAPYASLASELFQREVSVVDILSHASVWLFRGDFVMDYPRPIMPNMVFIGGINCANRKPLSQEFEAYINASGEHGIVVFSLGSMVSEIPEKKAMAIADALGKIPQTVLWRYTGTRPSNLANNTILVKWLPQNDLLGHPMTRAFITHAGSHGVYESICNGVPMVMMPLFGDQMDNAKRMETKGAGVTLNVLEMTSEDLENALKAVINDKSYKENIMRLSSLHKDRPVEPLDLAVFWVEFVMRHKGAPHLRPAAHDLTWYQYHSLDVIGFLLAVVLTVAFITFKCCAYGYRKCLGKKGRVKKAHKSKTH
# Sulfotransferase 1E1 = target: T4, Sulfotransferase 1E1 (Homo sapiens, UniProt P49888); assay: Major substrate of human cytosolic sulfotransferase SULT1E1
# T4 sequence (P49888 whole entry): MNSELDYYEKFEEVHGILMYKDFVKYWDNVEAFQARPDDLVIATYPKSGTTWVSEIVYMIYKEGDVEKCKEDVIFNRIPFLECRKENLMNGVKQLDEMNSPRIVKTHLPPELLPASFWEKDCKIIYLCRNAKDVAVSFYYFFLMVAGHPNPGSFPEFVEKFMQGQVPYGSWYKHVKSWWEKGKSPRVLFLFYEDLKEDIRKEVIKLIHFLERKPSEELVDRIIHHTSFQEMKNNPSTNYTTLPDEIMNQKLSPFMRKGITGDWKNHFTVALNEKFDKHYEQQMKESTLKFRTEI
# [4] = target: T5, UDP-glucuronosyltransferase 1A1 (Homo sapiens, UniProt P22309); assay: Substrate of human UDP-glucuronosyltransferase UGT1A1
# T5 sequence (P22309 whole entry): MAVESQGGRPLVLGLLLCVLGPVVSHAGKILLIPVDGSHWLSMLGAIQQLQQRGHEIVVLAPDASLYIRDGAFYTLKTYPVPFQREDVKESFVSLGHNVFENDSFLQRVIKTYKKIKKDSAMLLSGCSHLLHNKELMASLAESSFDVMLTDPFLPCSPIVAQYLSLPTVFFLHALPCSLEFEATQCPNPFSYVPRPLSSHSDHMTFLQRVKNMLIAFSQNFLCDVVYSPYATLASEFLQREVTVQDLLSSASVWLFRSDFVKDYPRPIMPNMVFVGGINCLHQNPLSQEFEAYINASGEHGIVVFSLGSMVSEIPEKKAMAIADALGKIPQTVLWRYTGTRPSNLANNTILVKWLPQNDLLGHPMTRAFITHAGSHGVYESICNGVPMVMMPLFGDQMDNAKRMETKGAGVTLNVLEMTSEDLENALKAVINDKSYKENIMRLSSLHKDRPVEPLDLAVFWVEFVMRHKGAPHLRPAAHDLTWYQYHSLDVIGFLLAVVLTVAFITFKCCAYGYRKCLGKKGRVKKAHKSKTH
# [5] = target: T6, UDP-glucuronosyltransferase 1A6 (Homo sapiens, UniProt P19224); assay: Substrate of human UDP-glucuronosyltransferase UGT1A6
# T6 sequence (P19224 whole entry): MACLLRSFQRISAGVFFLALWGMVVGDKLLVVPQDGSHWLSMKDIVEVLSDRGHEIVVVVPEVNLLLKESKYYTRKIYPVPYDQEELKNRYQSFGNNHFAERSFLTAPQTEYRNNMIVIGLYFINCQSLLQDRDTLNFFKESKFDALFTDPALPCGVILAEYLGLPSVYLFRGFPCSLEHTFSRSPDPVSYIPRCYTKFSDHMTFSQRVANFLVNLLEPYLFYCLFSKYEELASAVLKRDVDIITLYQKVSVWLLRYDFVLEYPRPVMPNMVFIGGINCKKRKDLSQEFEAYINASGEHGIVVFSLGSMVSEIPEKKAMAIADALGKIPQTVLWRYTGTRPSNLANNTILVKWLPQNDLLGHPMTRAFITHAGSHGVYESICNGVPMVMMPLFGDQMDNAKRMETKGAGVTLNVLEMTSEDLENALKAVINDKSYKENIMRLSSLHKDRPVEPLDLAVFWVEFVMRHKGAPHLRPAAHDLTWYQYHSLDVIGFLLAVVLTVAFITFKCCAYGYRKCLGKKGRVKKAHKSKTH
# [6] = target: T7, UDP-glucuronosyltransferase 1A9 (Homo sapiens, UniProt O60656); assay: Substrate of human UDP-glucuronosyltransferase UGT1A9
# T7 sequence (O60656 whole entry): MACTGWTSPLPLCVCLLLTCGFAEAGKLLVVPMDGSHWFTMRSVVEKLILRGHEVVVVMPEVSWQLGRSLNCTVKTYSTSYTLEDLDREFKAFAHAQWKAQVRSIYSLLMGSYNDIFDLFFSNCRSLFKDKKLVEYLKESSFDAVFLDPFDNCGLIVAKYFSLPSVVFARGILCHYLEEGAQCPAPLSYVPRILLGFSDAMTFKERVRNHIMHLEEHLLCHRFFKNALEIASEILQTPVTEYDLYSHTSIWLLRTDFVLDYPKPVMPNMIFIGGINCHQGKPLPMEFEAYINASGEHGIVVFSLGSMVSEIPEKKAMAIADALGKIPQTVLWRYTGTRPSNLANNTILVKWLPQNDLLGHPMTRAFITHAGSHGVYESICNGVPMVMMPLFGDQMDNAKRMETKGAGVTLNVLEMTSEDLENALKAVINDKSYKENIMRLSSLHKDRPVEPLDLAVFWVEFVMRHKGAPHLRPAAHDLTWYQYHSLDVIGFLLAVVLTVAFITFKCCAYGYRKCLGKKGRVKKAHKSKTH
# Sulfotransferase 1A1 = Sulfotransferase 1A1 (Homo sapiens, UniProt P50225); assay: Major substrate of human cytosolic sulfotransferase SULT1A1
# Chain of Sulfotransferase 1A1 (P50225 whole entry, canonical isoform): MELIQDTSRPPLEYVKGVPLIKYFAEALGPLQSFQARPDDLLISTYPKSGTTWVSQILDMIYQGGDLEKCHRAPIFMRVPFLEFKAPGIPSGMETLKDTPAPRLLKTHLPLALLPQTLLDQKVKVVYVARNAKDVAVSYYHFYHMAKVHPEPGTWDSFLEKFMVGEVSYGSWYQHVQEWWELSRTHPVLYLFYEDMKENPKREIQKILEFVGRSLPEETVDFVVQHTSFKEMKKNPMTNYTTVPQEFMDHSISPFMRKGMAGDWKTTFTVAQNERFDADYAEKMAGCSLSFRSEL
# Cytochrome P450 2C9 = Cytochrome P450 2C9 (Homo sapiens, UniProt P11712); assay: Clinically relevant inhibitors of human liver microsomal P450 enzymes, isoform CYP2C9; conditions: microsomes
# Chain of Cytochrome P450 2C9 (P11712 whole entry, canonical isoform): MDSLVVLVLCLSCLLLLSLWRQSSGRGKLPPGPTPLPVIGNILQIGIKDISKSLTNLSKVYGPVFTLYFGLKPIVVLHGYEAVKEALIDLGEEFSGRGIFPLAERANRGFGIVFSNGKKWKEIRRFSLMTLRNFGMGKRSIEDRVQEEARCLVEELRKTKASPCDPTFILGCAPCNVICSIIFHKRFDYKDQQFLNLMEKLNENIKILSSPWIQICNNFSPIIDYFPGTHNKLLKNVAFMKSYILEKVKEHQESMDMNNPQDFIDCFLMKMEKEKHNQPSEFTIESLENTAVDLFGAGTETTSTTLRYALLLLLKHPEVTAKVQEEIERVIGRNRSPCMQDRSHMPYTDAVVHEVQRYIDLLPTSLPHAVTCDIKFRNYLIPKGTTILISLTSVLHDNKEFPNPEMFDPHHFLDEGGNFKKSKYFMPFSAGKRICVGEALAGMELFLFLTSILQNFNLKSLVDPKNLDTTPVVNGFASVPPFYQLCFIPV
# [7] = target: T8, UDP-glucuronosyltransferase 2B7 (Homo sapiens, UniProt P16662); assay: Substrate of human UDP-glucuronosyltransferase UGT2B7
# T8 sequence (P16662 whole entry): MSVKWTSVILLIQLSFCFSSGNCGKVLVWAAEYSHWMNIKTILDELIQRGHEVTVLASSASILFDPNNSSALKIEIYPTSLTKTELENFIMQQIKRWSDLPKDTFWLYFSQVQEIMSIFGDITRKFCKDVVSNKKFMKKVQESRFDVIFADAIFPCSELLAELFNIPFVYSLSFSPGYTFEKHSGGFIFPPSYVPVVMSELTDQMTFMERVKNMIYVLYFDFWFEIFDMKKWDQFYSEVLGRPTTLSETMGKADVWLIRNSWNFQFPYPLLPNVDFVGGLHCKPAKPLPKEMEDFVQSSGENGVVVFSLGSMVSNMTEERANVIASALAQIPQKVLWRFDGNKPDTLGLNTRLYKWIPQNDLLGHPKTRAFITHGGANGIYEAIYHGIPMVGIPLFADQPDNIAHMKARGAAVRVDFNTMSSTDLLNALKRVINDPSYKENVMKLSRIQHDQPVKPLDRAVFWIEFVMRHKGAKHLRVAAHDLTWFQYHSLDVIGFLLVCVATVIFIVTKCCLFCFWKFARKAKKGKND
smiles,measurement,setting,value
CC[C@@]1(c2ccccc2)NC(=O)N(C)C1=O,Activity,Cytochrome P450 2B6,Substrate
O=C(O)CCCc1ccc(N(CCCl)CCCl)cc1 [CHLORAMBUCIL],Activity,[1],Substrate
same,Activity,[2],Substrate
O=C1Nc2ccc(Cl)cc2[C@@](C#CC2CC2)(C(F)(F)F)O1 [EFAVIRENZ],Activity,Cytochrome P450 2B6,Substrate
CCCCCCCCCc1ccc(O)cc1 [4-NONYLPHENOL],Activity,Sulfotransferase 1C4,Substrate
CN1CCC(=C2c3ccccc3CC(=O)c3sccc32)CC1 [KETOTIFEN],Activity,[3],Substrate
Cc1ccnc2c1NC(=O)c1cccnc1N2C1CC1 [NEVIRAPINE],Activity,Cytochrome P450 2B6,Substrate
O=P1(N(CCCl)CCCl)NCCCO1 (stereo not drawn) [CYCLOPHOSPHAMIDE ANHYDROUS],Activity,Cytochrome P450 2B6,Substrate
C#C[C@]1(O)CC[C@H]2[C@@H]3CCc4cc(O)ccc4[C@H]3CC[C@@]21C [ETHINYL ESTRADIOL],Activity,Sulfotransferase 1E1,Substrate
same,Activity,[4],Substrate
CC(=O)Nc1ccc(O)cc1 [ACETAMINOPHEN],Activity,[5],Substrate
same,Activity,[6],Substrate
same,Activity,[4],Substrate
same,Activity,Sulfotransferase 1A1,Substrate
C[C@]12COC(=O)C[C@@H]1CC[C@@H]1[C@@H]2CC[C@@]2(C)[C@H]1CC[C@]2(C)O [OXANDROLONE],Activity,Cytochrome P450 2C9,Inhibitor
O=C(O)COc1ccc(C(=O)c2cccs2)c(Cl)c1Cl,Activity,Cytochrome P450 2C9,Inhibitor
C=CC1=C(C)/C(=C/c2[nH]c(Cc3[nH]c(/C=C4\NC(=O)C(C)=C4C=C)c(C)c3CCC(=O)O)c(CCC(=O)O)c2C)NC1=O [BILIRUBIN],Activity,[4],Substrate
C=CC=O [ACROLEIN],Activity,[2],Substrate
Nc1ccc(S(=O)(=O)Nc2ccnn2-c2ccccc2)cc1 [SULFAPHENAZOLE],Activity,Cytochrome P450 2C9,Inhibitor
CC(C(=O)O)c1cccc(Oc2ccccc2)c1 (stereo not drawn) [FENOPROFEN],Activity,[6],Substrate
same,Activity,[3],Substrate
NCCc1c[nH]c2ccc(O)cc12 [SEROTONIN],Activity,[5],Substrate
COc1ccc2cc([C@H](C)C(=O)O)ccc2c1 [NAPROXEN],Activity,[6],Substrate
same,Activity,[3],Substrate
CC(C(=O)O)c1cccc(C(=O)c2ccccc2)c1 (stereo not drawn) [KETOPROFEN],Activity,[7],Substrate
same,Activity,[6],Substrate
same,Activity,[3],Substrate
O=C1[C@H](CC[C@H](O)c2ccc(F)cc2)[C@@H](c2ccc(O)cc2)N1c1ccc(F)cc1 [EZETIMIBE],Activity,[3],Substrate
C[C@]12CC[C@@H]3c4ccc(O)cc4CC[C@H]3[C@@H]1CC[C@@H]2O[C@@H]1O[C@H](C(=O)O)[C@@H](O)[C@H](O)[C@H]1O [ESTRADIOL 17B GLUCURONIDE],Activity,[4],Substrate
CCCCCOC(=O)Nc1nc(=O)n([C@@H]2O[C@H](C)[C@@H](O)[C@H]2O)cc1F [CAPECITABINE],Activity,Cytochrome P450 2C9,Inhibitor
CC(C)(c1ccc(O)cc1)c1ccc(O)cc1 [BISPHENOL A],Activity,Sulfotransferase 1C4,Substrate
OC(Cn1cncn1)(Cn1cncn1)c1ccc(F)cc1F [FLUCONAZOLE],Activity,Cytochrome P450 2C9,Inhibitor
CCOC(=O)C1(c2ccccc2)CCN(C)CC1 [MEPERIDINE],Activity,Cytochrome P450 2B6,Substrate
CNC1(c2ccccc2Cl)CCCCC1=O (stereo not drawn) [KETAMINE],Activity,Cytochrome P450 2B6,Substrate
S=P(N1CC1)(N1CC1)N1CC1 [THIOTEPA],Activity,[2],Substrate
CC/C(=C(/CC)c1ccc(O)cc1)c1ccc(O)cc1 [DIETHYLSTILBESTROL],Activity,Sulfotransferase 1E1,Substrate
same,Activity,Sulfotransferase 1C4,Substrate
Cc1cc(=O)oc2cc(O)ccc12 [HYMECROMONE],Activity,[5],Substrate

# Source: ChEMBL document CHEMBL1743201, “Casarett and Doull's Toxicology The Basic Science of Poisons, 7th edition” (2008)
